From ChEMBL document CHEMBL2169871, “SIRT1 modulation as a novel approach to the treatment of diseases of aging” (J Med Chem, 2011)
pEC50, pIC50: −log10 of the molar value.

Key:
[1] = target: T1, NAD-dependent protein deacetylase sirtuin-3, mitochondrial (Homo sapiens, UniProt Q9NTG7); assay: Inhibition of SIRT3
T1 sequence (Q9NTG7 whole entry): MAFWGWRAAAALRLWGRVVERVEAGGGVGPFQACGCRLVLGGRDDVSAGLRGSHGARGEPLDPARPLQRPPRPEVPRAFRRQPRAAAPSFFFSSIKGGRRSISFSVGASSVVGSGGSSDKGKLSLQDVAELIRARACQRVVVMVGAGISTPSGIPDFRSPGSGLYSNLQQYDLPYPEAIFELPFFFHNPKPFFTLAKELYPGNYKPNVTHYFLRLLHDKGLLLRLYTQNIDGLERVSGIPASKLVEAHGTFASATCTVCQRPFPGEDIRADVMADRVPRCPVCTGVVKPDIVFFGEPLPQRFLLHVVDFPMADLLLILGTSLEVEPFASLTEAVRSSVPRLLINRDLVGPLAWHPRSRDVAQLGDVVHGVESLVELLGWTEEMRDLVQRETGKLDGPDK

[2] = target: T2, NAD-dependent protein deacetylase sirtuin-1 (Homo sapiens, UniProt Q96EB6); assay: Inhibition of SIRT1
T2 sequence (Q96EB6 whole entry): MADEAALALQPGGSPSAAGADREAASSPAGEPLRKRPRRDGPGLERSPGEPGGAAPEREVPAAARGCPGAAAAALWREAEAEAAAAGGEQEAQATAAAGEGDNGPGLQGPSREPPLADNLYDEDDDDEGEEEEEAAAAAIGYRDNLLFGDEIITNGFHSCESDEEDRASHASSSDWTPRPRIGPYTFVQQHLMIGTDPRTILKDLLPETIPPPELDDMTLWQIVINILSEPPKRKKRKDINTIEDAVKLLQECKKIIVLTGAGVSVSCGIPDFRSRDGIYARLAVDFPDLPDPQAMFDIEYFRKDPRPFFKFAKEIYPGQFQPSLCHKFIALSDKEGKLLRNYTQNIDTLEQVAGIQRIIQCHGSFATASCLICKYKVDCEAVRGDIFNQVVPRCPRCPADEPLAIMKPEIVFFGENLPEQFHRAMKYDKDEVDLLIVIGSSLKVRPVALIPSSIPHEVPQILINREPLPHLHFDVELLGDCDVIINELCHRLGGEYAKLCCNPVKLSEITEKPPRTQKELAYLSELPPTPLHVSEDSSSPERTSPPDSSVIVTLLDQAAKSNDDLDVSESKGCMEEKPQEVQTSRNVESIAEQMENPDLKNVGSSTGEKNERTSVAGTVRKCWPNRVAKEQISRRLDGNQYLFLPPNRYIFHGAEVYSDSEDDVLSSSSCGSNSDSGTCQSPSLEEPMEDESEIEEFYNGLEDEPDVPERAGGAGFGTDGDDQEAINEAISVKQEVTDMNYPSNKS

[3] = target: T3, NAD-dependent protein deacetylase sirtuin-2 (Homo sapiens, UniProt Q8IXJ6); assay: Inhibition of SIRT2
T3 sequence (Q8IXJ6 whole entry): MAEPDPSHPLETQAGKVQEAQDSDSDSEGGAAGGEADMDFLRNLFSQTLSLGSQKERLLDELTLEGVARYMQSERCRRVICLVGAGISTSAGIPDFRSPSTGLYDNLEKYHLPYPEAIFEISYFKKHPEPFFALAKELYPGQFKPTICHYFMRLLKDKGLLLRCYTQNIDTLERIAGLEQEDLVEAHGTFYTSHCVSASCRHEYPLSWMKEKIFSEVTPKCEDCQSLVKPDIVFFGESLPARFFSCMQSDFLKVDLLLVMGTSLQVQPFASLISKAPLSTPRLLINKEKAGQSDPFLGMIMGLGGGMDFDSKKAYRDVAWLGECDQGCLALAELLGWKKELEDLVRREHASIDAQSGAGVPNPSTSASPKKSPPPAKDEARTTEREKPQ

[4] = target: T2, NAD-dependent protein deacetylase sirtuin-1; assay: Activation of SIRT1
[5] = Half life in mouse; type: ADME, organism-based; conditions: in vivo
[6] = target: T4, NAD-dependent protein deacetylase sirtuin-1 (Homo sapiens) (UniProt Q96EB6); assay: Activation of SIRT1 relative to control
T4 sequence (whole entry): T2 sequence (Q96EB6 whole entry)

Mus musculus [7] = assay: Increase of SIRT1 mRNA expression in mouse brain at 12.5 mg/kg qd for 7 days by RT-PCR analysis; type: functional
Mus musculus [8] = assay: Increase of SIRT1 mRNA expression in mouse soleus muscle at 12.5 to 25 mg/kg qd for 7 days by RT-PCR analysis; type: functional; conditions: dose mg/kg 12.5-25
Mus musculus [9] = assay: Increase of SIRT1 mRNA expression in mouse brain at 25 mg/kg qd for 7 days by RT-PCR analysis; type: functional

Row | SMILES | pIC50 [2] | pEC50 [4] | Emax [6] [%] | other results
1 | CCOC(=O)CC(=O)NCCCC[C@H](NC(=O)OCc1ccccc1)C(=O)Nc1ccccc1 | 5.40 | – | – | pIC50 [1]: < 3.52; pIC50 [3]: 4.19
2 | Cc1ccc(C(=O)Nc2ccc(S(=O)(=O)O)c3cc(S(=O)(=O)O)cc(S(=O)(=O)O)c23)cc1NC(=O)c1cccc(NC(=O)Nc2cccc(C(=O)Nc3cc(C(=O)Nc4ccc(S(=O)(=O)O)c5cc(S(=O)(=O)O)cc(S(=O)(=O)O)c45)ccc3C)c2)c1 [SURAMIN HEXASODIUM] | – | – | – | pIC50 [3]: 5.92
3 | O=C(Nc1ccccc1-c1nc2cccnc2s1)c1cc(N2CCNCC2)nc(-c2ccccc2)n1 | – | > 6.60 | – | –
4 | NC(=O)C1CCCc2c1[nH]c1ccc(Cl)cc21 (configuration not stated) | – | – | – | half-life [5]: 3.23 h
5 | CN(C)c1cccc(C(=O)Nc2cccc(-c3nc4ncccc4o3)c2)c1 | – | 4.60 | 207 | –
6 | O=C(Nc1ccccc1-c1nc2ccccc2[nH]1)c1cnc2ccccc2n1 | – | 6.52 | 253 | –
7 | O=C(Nc1ccccc1-c1nc2cccnc2s1)c1cc(N2CCOCC2)nc(-c2ccccc2)n1 | – | > 6.60 | – | –
8 | CN(C)c1cccc(C(=O)Nc2ccccc2-c2nc3ncccc3o2)c1 | – | 5.36 | 209 | –
9 | O=c1c(O)c(-c2ccc(O)c(O)c2)oc2cc(O)cc(O)c12 [QUERCETIN] | – | – | – | Activity (Mus musculus [7]): 50%; Activity (Mus musculus [8]): 200%; Activity (Mus musculus [9]): 100%
10 | O=C(Nc1ccccc1-c1nc2cccnc2s1)c1cc(NC[C@@H](O)CO)nc(-c2ccccc2)n1 | – | > 6.60 | – | –
11 | O=C1Nc2c(ccc(Cl)c2Cl)/C1=C/c1cc(Br)c(O)c(Br)c1 | 4.40 | – | – | pIC50 [3]: 4.55
12 | O=C1NC(=S)NC(=O)C1=Cc1cccc2ccccc12 | 4.89 | – | – | pIC50 [3]: 5.05
13 | O=C(Nc1ccc(CN2CCNCC2)cc1-c1nc2ccccc2[nH]1)c1cnc2ccccc2n1 | – | 6.40 | 820 | –
14 | O=C1c2cccc3cccc(c23)C(=O)N1CCNCCCNCCCNCCN1C(=O)c2cccc3cccc(c23)C1=O | 4.37 | – | – | –
15 | COc1ccc(C(=O)Nc2ccccc2-c2nc3ncccc3o2)cc1OC | – | 6.05 | 170 | –
16 | O=C(Nc1nccs1)c1cccc2[nH]c(-c3cccc(C(F)(F)F)c3)nc12 | – | > 6.00 | > 200 | –
17 | O=C1NC(=S)NC(=O)C1=Cc1cc2ccccc2[nH]1 | 5.22 | – | – | pIC50 [3]: 4.70
18 | CC(=S)NCCCC[C@H](NC(=O)OCc1ccccc1)C(=O)Nc1ccccc1 | – | – | – | pIC50 [1]: < 4.00
19 | COc1ccc(C(=O)Nc2cccc(-c3nc4ncccc4o3)c2)cc1OC | – | 5.22 | 240 | –
20 | O=c1[nH]c(=S)[nH]c(-c2ccc(Br)cc2)c1Cc1c(O)ccc2ccccc12 | 4.89 | – | – | –
21 | Cc1ccc2[nH]c(=O)c(C=C3C(=O)NC(=S)NC3=O)cc2c1 | 4.89 | – | – | pIC50 [3]: 4.96
22 | NC(=O)c1ccccc1Nc1ccccc1 [ANILINOBENZAMIDE] | 4.77 | – | – | –
